The text below walks through data of ChEMBL document CHEMBL1201862, “PubChem BioAssay data set” (2004).

Structures are written as SMILES.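 Grown in 96-well plates, cells were treated for 48 hours with each compound at five concentrations. Insufficient inhibition: endpoint recorded as highest concentration tested. Here, GI50 denotes the concentration required for 50% inhibition of growth.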 The source made the active and inactive calls. Cut-off read from the data, not from the text of the source: active = GI50 up to about 1.1 µM and inactive = higher.

Holding throughout (assay): inhibition of tumour cell growth, NCI panel, 48 h
Assay [1] deals with 786-0.
Assay [2] concerns A549.
Assay [3] concerns COLO 205.
The subject of assay [4] is EKVX.
The subject of assay [5] is HOP-92.
For assay [6], the system named is IGROV-1.
Assay [7] concerns K562.
Assay [8] deals with MCF7.
Assay [9] has as its system MDA-MB-231.
Assay [10] deals with MDA-MB-435.
Assay [11] relates to NCI-H460.
Assay [12] has as its system NCI-H522.
The test system of assay [13] is OVCAR-5.
Assay [14] deals with RXF 393.
The subject of assay [15] is SF-268.
Assay [16] deals with SF-295.
For assay [17], the system named is SK-MEL-28.
The subject of assay [18] is SK-OV-3.
For assay [19], the system named is SW-620.
For assay [20], the system named is T47D.

Consider `OCCCNc1[nH]cnc2nncc1-2`, for which the GI50 in [1], in assay [2], in [3], in assay [4], in [5] and in assay [6] was > 100 µM (inactive) in each case. Further, the GI50 in assay [7], in assay [8], in assay [9], in assay [10], in [11] and in assay [12] was > 100 µM (inactive) each time. Besides, the GI50 in assay [13], in assay [14], in [15], in assay [16], in assay [17] and in [18] was > 100 µM (inactive) each time. The GI50 in assay [19] and in [20] was > 100 µM (inactive) throughout.
`O=C[C@@H](CO)O[C@H](C=O)c1c[nH]c(=O)[nH]c1=O`: the GI50 in [1] was 128 µM (inactive); in assay [2] it was 192 µM (inactive); in [3] it was 77.1 µM (inactive); in [4], 75.7 µM (inactive); in assay [5], 81.1 µM (inactive); in [6], 81.1 µM (inactive). For the same molecule, the GI50 in assay [7] is 66.1 µM (inactive); in assay [8] it was 45.2 µM (inactive); in assay [9] it was 74.1 µM (inactive); in assay [10] it was 49.4 µM (inactive); in assay [11] it was 105 µM (inactive); in [12] it was 70.1 µM (inactive). Moreover, the GI50 in [13] was 131 µM (inactive); in [14], 54.8 µM (inactive); in [15] it was 102 µM (inactive); in [16], 146 µM (inactive); in assay [17], 85.7 µM (inactive); in assay [18], 112 µM (inactive). The GI50 in assay [19] is 62.8 µM (inactive); in assay [20] it was 73.6 µM (inactive).
On to `O=C1c2cccnc2C(=O)c2c1nc1ccccc1c2-c1ccc2c3c(nc4ccccc42)C(=O)c2cccnc2-c13`, for which the GI50 was 0.417 µM (active) in [1]; 2.17 µM (inactive) in [2]; 2.08 µM (inactive) in assay [3]; 0.94 µM (active) in assay [4]; 10.5 µM (inactive) in assay [5]; 0.0728 µM (active) in assay [6]. Also, the GI50 in assay [7] is 1.58 µM (inactive); in assay [8], 2.07 µM (inactive); in assay [9], 2.21 µM (inactive); in [10], 1.87 µM (inactive); in assay [11], 1.55 µM (inactive); in assay [12], 0.692 µM (active). For the same molecule, the GI50 in assay [13] was 6.43 µM (inactive); in assay [14] it was 0.838 µM (active); in assay [15] it was 0.52 µM (active); in [16], 2.56 µM (inactive); in [17] it was 2.55 µM (inactive); in assay [18], 1.85 µM (inactive). In addition, the GI50 in assay [19] was 0.268 µM (active); in assay [20] it was 4.58 µM (inactive).
For `CC(=O)N1CN2C(=O)CCC2c2cc(C)ccc21` (stereo not given), the GI50 in assay [1], in assay [2], in assay [3], in [4], in assay [5] and in assay [6] was > 100 µM (inactive) throughout. Besides, the GI50 in assay [7], in assay [8], in assay [9], in assay [10], in [11] and in assay [12] was > 100 µM (inactive) each time. Moreover, the GI50 in assay [13], in [14], in assay [15], in [16], in assay [17] and in assay [18] was > 100 µM (inactive) throughout. Moreover, the GI50 in [19] and in assay [20] was > 100 µM (inactive) throughout.
As for `C=C(C)C1CC2=C(C(=O)OC)C=C(O2)C(C(=C)C)[C@@H]2OC(=O)/C(=C\C1O)[C@H]2N(C)C` (stereo not given in full), the GI50 was 8.05 µM (inactive) in [1]; 13.9 µM (inactive) in assay [2]; 9.4 µM (inactive) in assay [3]; 11.7 µM (inactive) in [4]; 6.53 µM (inactive) in [5]; 6.04 µM (inactive) in assay [6]. For the same molecule, the GI50 in assay [7] was 3.6 µM (inactive); in [8] it was 5.92 µM (inactive); in assay [9] it was 21.5 µM (inactive); in [10], 9.44 µM (inactive); in assay [11] it was 15.2 µM (inactive); in [12], 2.91 µM (inactive). Moreover, the GI50 is 16.5 µM (inactive) in [13]; 5.02 µM (inactive) in [14]; 17 µM (inactive) in assay [15]; 17.5 µM (inactive) in assay [16]; 13.1 µM (inactive) in [17]; 24.9 µM (inactive) in assay [18]. For the same molecule, the GI50 in assay [19] was 7.33 µM (inactive); in assay [20], 11.7 µM (inactive).
Regarding `O=C1c2cc3c(cc2CC12Cc1ccccc1C2)CCC3`, the GI50 in [1] is 21.1 µM (inactive); in [2], 44.4 µM (inactive); in [3], 18.6 µM (inactive); in assay [4], 29.9 µM (inactive); in [5] it was 23.9 µM (inactive); in assay [6], 38.2 µM (inactive). Also, the GI50 in [7] was 44.3 µM (inactive); in assay [8] it was 18.8 µM (inactive); in assay [9], 23.6 µM (inactive); in assay [10], 28.2 µM (inactive); in [11], 25.8 µM (inactive); in [12], 27.4 µM (inactive). Moreover, the GI50 was 52.6 µM (inactive) in assay [13]; 22.1 µM (inactive) in [14]; 34.8 µM (inactive) in assay [15]; 46.5 µM (inactive) in assay [16]; 57.4 µM (inactive) in [17]; > 100 µM (inactive) in assay [18]. Also, the GI50 in assay [19] was 45.8 µM (inactive); in assay [20], 45.9 µM (inactive).
For `Cc1cn(CCCC2=NCCCN2)c(=O)[nH]c1=O`, the GI50 in assay [1], in assay [2], in assay [3], in assay [4], in assay [5] and in assay [6] was > 100 µM (inactive) each time. In addition, the GI50 in [7], in [8], in assay [9], in [10], in assay [11] and in [12] was > 100 µM (inactive) in each case. Moreover, the GI50 in assay [13], in assay [14], in assay [15], in assay [16], in assay [17] and in assay [18] was > 100 µM (inactive) in each case. For the same molecule, the GI50 in assay [19] and in assay [20] was > 100 µM (inactive) in each case.
As for `Cc1c(-c2ccccc2)n[nH]c1NC1(C)C(=O)N(/N=C/c2ccccc2)N=C1c1ccccc1` (stereo not given), the GI50 in assay [1] is > 100 µM (inactive); in [2], 7.4 µM (inactive); in [3] it was > 30.5 µM (inactive); in assay [4], > 91.6 µM (inactive); in assay [5] it was > 100 µM (inactive); in assay [6] it was > 100 µM (inactive). The GI50 in assay [7] was 6.15 µM (inactive); in assay [8], 4.78 µM (inactive); in assay [9], > 100 µM (inactive); in [10], 52.7 µM (inactive); in [11], > 62.5 µM (inactive); in assay [12] it was > 100 µM (inactive). The GI50 in assay [13] is > 100 µM (inactive); in assay [14], > 29.8 µM (inactive); in [15], > 100 µM (inactive); in assay [16], 68.2 µM (inactive); in [17], > 100 µM (inactive); in assay [18], > 100 µM (inactive). Further, the GI50 in assay [19] is > 93.3 µM (inactive); in assay [20], > 26 µM (inactive).
As for `C=CCc1cc(C(Cc2ccccc2)NC(C)C)cc(OCc2ccccc2)c1OCc1ccccc1` (stereo not given), the GI50 was 16.6 µM (inactive) in assay [1]; 16.7 µM (inactive) in assay [2]; 17.3 µM (inactive) in assay [3]; 16.2 µM (inactive) in assay [4]; 12.5 µM (inactive) in assay [5]; 15.8 µM (inactive) in assay [6]. For the same molecule, the GI50 in assay [7] is 16.8 µM (inactive); in [8], 17.3 µM (inactive); in [9], 15 µM (inactive); in assay [10] it was 15.7 µM (inactive); in assay [11], 15 µM (inactive); in assay [12], 15.3 µM (inactive). Further, the GI50 was 19.1 µM (inactive) in assay [13]; 14.4 µM (inactive) in [14]; 16 µM (inactive) in assay [15]; 17.8 µM (inactive) in assay [16]; 16.4 µM (inactive) in [17]; 14 µM (inactive) in assay [18]. The GI50 in assay [19] is 18.2 µM (inactive); in [20], 14.5 µM (inactive).
With `O=C(OC12CC3CC(CC(C3)C1)C2)c1ccc(NCc2cc(O)ccc2O)cc1`, the GI50 was 1.15 µM (inactive) in assay [1]; 3.97 µM (inactive) in [2]; 0.285 µM (active) in assay [3]; 0.843 µM (active) in assay [4]; 0.34 µM (active) in assay [5]; 0.109 µM (active) in assay [6]. Besides, the GI50 in assay [7] is 0.622 µM (active); in assay [8], 0.48 µM (active); in assay [9], 1.98 µM (inactive); in assay [10], 1.27 µM (inactive); in [11] it was 2.53 µM (inactive); in assay [12], 0.0776 µM (active). For the same molecule, the GI50 in assay [13] was 1.73 µM (inactive); in assay [14] it was 0.288 µM (active); in assay [15], 1.75 µM (inactive); in [16], 2.29 µM (inactive); in [17] it was 0.489 µM (active); in assay [18], 2.99 µM (inactive). In addition, the GI50 is 1.67 µM (inactive) in assay [19] and 0.262 µM (active) in [20].
